These results are taken from patent US11311539B2, “Compositions and methods for treatment of fragile X syndrome” (Children's Hospital Medical Center, priority 2015, dated 2022).

Entries after “also recorded” stand apart in the source; their conditions may differ.

The test system of assay [1] is FXS KO mice. Conditions: preclinical literature; cited from earlier work.
In assay [2] the test system is FXS KO mice. Conditions: preclinical literature; cited from earlier work. The source holds these as a separate data set.
In assay [3] the test system is Fmr1 KO mice. The assay is described as follows: Audiogenic seizure susceptibility (120 dB siren). Type of assay: in vivo. Conditions: oral gavage, acute, 30 min prior to testing, juvenile mice, VEH approximately 60%. The protocol:
(§1) Throughout experiments in Fmr1 KO mice, we treated animals with 1 mg/kg AZD7325, 3 mg/kg AZD7325 or vehicle (VEH) by oral gavage to mimic the human exposure route. Juvenile mice were treated acutely and adult mice were treated chronically prior to and throughout behavior analysis.
(§2) Audiogenic seizure susceptibility in Fmr1 KO mice, which is thought to be the result of increased neuronal activity in response to sensory stimuli, peaks around the third week of life and manifests as wild running which is typically followed by tonic-clonic seizure. […] In adulthood, Fmr1 KO mice have abnormal motor responses to sensory stimuli compared to WT mice in an acoustic startle paradigm. […] This type of deficit in the VEH-treated Fmr1 KO mice is reminiscent of the exaggerated anxiety responses people with FXS commonly display.

The subject of assay [4] is Fmr1 KO mice. Kind of assay: Conditioned fear response to mild foot shock (cued portion). It is filed as in vivo. Conditions: both dose levels (1 and 3 mg/kg), oral gavage, KO mice vs WT. The protocol: as §1, §2
The subject of assay [5] is Fmr1 KO mice. Kind of assay: Novel object recognition paradigm. It is filed as in vivo. Conditions: low dose (1 mg/kg), oral gavage, KO mice vs KO+VEH. The protocol: as §1, §2
Based upon preclinical data in FXS implicating insufficient GABA(A) activity in the pathophysiology of the disorder combined with preclinical and human evidence (unpublished data) supporting the tolerability and effectiveness of improving aberrant behavior, 4-amino-8-(2-fluoro-6-methoxy-phenyl)-N-propyl-cinnoline-3-carboxamide is an ideal molecule to develop as a clinical treatment in humans with FXS.

Assay [6] concerns Fmr1 KO mice. The assay is described as follows: Acoustic startle paradigm (whole body flinch, Vmax). Type of assay: in vivo. Conditions: adult Fmr1 KO mice. The protocol: In adulthood, Fmr1 KO mice have abnormal motor responses to sensory stimuli compared to WT mice in an acoustic startle paradigm.
as §1, §2

The subject of assay [7] is FXS KO mice. Conditions: literature; cited from earlier work.
Assay [8] concerns FXS KO mice. Conditions: literature; cited from earlier work. The source holds these as a separate data set.
The subject of assay [9] is FXS KO mice. Conditions: literature; cited from earlier work. The source holds these as a separate data set.

Regarding `CC(=O)[C@H]1CC[C@H]2[C@@H]3CC[C@H]4C[C@H](O)CC[C@]4(C)[C@H]3C(=O)C[C@]12C` [alphaxalone], in the assay on FXS KO mice [1], the Anxiety result was “reductions in anxiety”. For the same molecule, the Audiogenic seizures result in the assay with FXS KO mice [2] is on record as “rescue of audiogenic seizures”.
For `CCCNC(=O)c1nnc2c(-c3c(F)cccc3OC)cccc2c1N` [AZD7325, 4-amino-8-(2-fluoro-6-methoxy-phenyl)-N-propyl-cinnoline-3-carboxamide], the results for the “Fmr1 KO mice displaying wild running followed by seizure” value in the assay with Fmr1 KO mice [3] (high dose (3 mg/kg)) and in the assay on Fmr1 KO mice [3] (low dose (1 mg/kg)) were 0% and 11%, respectively. The “Conditioned fear response, cued portion of the test” value in the assay on Fmr1 KO mice [4] is “normalizing this behavior in KO mice”. The “Object memory in novel object recognition (discrimination index)” value is reported as “attenuates deficits in object memory” in the assay with Fmr1 KO mice [5] and “attenuates deficits in object memory; also recorded: greater interest in the novel object” in the assay with Fmr1 KO mice [5] (listed as 4-amino-8-(2-fluoro-6-methoxy-phenyl)-N-propyl-cinnoline-3-carboxamide). Also, in the assay on Fmr1 KO mice [6] (82 db white noise burst, 10 trial blocks, chronic low dose), the “Whole body flinching, low-level acoustic startle” value was “significantly reduced whole body flinching”. Also, in the assay on Fmr1 KO mice [6] (120 dB stimulus, chronic treatment), the “Whole body flinch response, high level acoustic stimulus” value was “improves this response to WT levels”.
For `Oc1noc2c1CCNC2` [gaboxadol], the “Prepulse inhibition (PPI) alterations” value in the assay with FXS KO mice [7] is reported as “reduced prepulse inhibition (PPI) alterations”. Besides, the “Neuron excitability deficits in the amygdala” value in the assay with FXS KO mice [8] is on record as “restored neuron excitability deficits in the amygdala”. The Hyperactivity result in the assay on FXS KO mice [9] is on record as “reduced hyperactivity”.
